Reference: patent US20260123631A1, “NATURAL PORPHIN SALT AND USE THEREOF AS PLANT GROWTH REGULATOR AND PLANT IMMUNITY INDUCER” (NANJING BOSTEC BIOLOGICAL ENGINEERING CO., LTD, priority 2022, published 2026)

Key:
[1] = Stability of sample solutions in the dark/under light; format: physicochemical
Description: Determination: An appropriate amount of a salt sample was taken, dissolved with water, and diluted to prepare a test solution with a concentration of about 10 ppm. An acidic reference substance (extremely-insoluble in water) was prepared with a 30% to 50% ethanol aqueous solution into a test solution with a concentration of about 10 ppm.
Each test solution was scanned by an ultraviolet spectrophotometer (at 0 h) for absorbance in a range of 200 nm to 800 nm immediately after being prepared. Then a test solution of each sample was divided into two parts. One part was placed at room temperature of 25° C. in the dark, and the other part was placed under light with a light intensity of 30,000 lux. At 1 h, 2 h, and 3 h, a solution sample was collected and scanned for absorbance respectively.
An absorbance value of a maximum absorption peak at 0 h (starting) of each test solution was set as a relative content of 100%, and a ratio of an absorbance value at each time point to the absorbance value at 0 h was calculated to determine a relative content, %.

[2] = Dilution and pH determination for sample solutions; format: physicochemical
Description: Method: 0.2500 g of a sample was accurately weighed and added to a 25 mL volumetric flask, dissolved with purified water, and diluted to a specified scale to prepare a 1.00% (10,000.0 ppm) initial solution. The initial solution was diluted with purified water in different ratios to prepare a series of solutions with a concentration of 1,000.0 ppm to 0.1 ppm. A pH value of each sample was determined three times.

chlorophyllase = experiment: In vitro chlorophyllase-inhibiting activity test; format: biochemical, mung bean; settings: substrate chlorophyll 120 ppm, sample 0.3 ppm to 30.0 ppm
Description: A chlorophyllase inhibition rate of a salt sample solution at each concentration was determined, and an IC50 value for a chlorophyllase inhibition activity of a salt sample was calculated.

mung bean seedlings = experiment: Inducing adventitious roots from hypocotyls of mung bean; format: in vivo; settings: day 7
Description: Test solution preparation: 8 mL of a commercially-available STANLEY universal hydroponic nutrient solution was taken and diluted with tap water to 3,200 mL (400-fold dilution) to produce a dilute nutrient solution. An appropriate amount of each of salt samples such as protoporphyrin disodium and potassium chlorhematin was weighed and prepared with the dilute nutrient solution into 0.010 ppm and 0.1 ppm sample test solutions, and 150 mL of each test solution was taken. 150 mL of the dilute nutrient solution was taken as a blank control. The test solutions and the control solution were placed in brown bottles, and the brown bottles were sealed with a black film. Mung bean seedlings with uniform growth and a seedling height of 7 cm to 8 cm were selected, and cut at 3 cm below a first true leaf node. 8 mung bean seedlings were inserted into each bottle (with roots removed) to make lower radicles soaked in a solution. Mung bean seedlings were treated at room temperature of 20° C. to 25° C. for 7 d in total, during which the solution was changed every 2 d. On day 2 to day 3 of the treatment, there was a significant difference. On day 7, the observation and determination were conducted. An average adventitious root number and an average total adventitious root length for each seedling were calculated, and results were shown in the following table: […]

pepper = experiment: Spraying on pepper to increase a yield; format: in vivo, pepper (Hebei Jize pepper)
Description: Experimental method: A land area of 10 mu was adopted for each of experimental and control groups. A treatment group was sprayed with a potassium hematin solution, a control group was sprayed with heme (at the same dose concentration as the treatment group), and a blank was sprayed with clear water. On May 19 (after transplanting) and July 2 (blooming stage), an agent was sprayed at 1.5 mg/mu in the treatment and control groups, with water amounts per mu respectively as follows: 15 L and 30 L (sample concentrations: 0.1 ppm and 0.05 ppm). On September 13, 10 pepper plants with uniform growth were selected from each of the treatment group and the control group, and fruit numbers and single-fruit weights were counted. The whole field was harvested in three batches on August 30, September 13, and September 25, respectively. Yields were subjected to combined statistics and comparison, and results were as follows: […]

mosaic virus = experiment: Controlling diseases in tobacco by spraying; format: in vivo, tobacco (Yunyan 87); settings: 0.20 ppm sprayed twice, 30 L/mu
From the text: For each treatment, 4 plots relatively scattered were selected from the field, with each plot of 50 m^2. An agent was sprayed twice around May 28 and June 4 during a root-spreading stage (12 leaves to 14 leaves) after tobacco transplanting, respectively. A same spraying volume (30 L/mu) was adopted for each treatment. During the spraying operation, each leaf surface should be sprayed evenly without dead corners left.
On July 15, tobacco plants in all treatment plots were surveyed. An incidence grading survey was conducted according to the Grade and investigation method of tobacco diseases and insect pests GB/T23222-2008, and an incidence rate and a disease index were counted for each treatment plot.

wheat = experiment: Spraying on wheat to increase a yield; format: in vivo, wheat (Huaimai 35)
Description: Crop: Huaimai 35. […] On Jun. 11, 2021, the harvesting was conducted throughout the field at a time.

[3] = Water solubility of the prepared salts; format: physicochemical
[4] = under light 30,000 lux, 1 h, salts in water, acidic reference in 30% to 50% ethanol
[5] = under light 30,000 lux, 2 h, salts in water, acidic reference in 30% to 50% ethanol
[6] = under light 30,000 lux, 3 h, salts in water, acidic reference in 30% to 50% ethanol
[7] = 1.5 mg/mu sprayed twice (0.1 ppm and 0.05 ppm)
[8] = 3 mg/mu sprayed 3 times (0.2, 0.1, 0.1 ppm)

| Relative content [1, 4] | Relative content [1, 5] | Relative content [1, 6] | IC50 for chlorophyllase inhibition activity (chlorophyllase) | solubility in water [3] | Compound | also measured |
| --- | --- | --- | --- | --- | --- | --- |
| 71.60% | 62.44% | 63.14% | 5.26 ppm | – | magnesium iron chlorophyllin | pH ([2]; 0.1 ppm in purified water): (6.94); pH ([2]; 1.0 ppm in purified water): (7.11); pH ([2]; 10.0 ppm in purified water): (7.40); pH ([2]; 20.0 ppm in purified water): (7.65); pH ([2]; 30.0 ppm in purified water): (7.78); pH ([2]; 100.0 ppm in purified water): (8.18) |
| 71.62% | 66.31% | 63.93% | 18.77 ppm | slightly soluble | zinc zinc chlorophyllin [Example 41] | – |
| 98.85% | 97.47% | 96.78% | 13.70 ppm | slightly soluble | copper copper chlorophyllin [Example 51] | – |
| 72.13% | 68.26% | 63.87% | 5.20 ppm | slightly soluble | manganese iron chlorin [Example 27] | – |
| 78.52% | 71.02% | 64.29% | 4.92 ppm | slightly soluble | copper iron chlorin [Example 29] | – |
| 72.04% | 65.63% | 57.54% | 5.09 ppm | easily soluble | potassium iron chlorophyllin [Example 30] | – |

More lines, now with the values behind:

| Compound | Relative content [1, 4] | Relative content [1, 5] | Relative content [1, 6] | IC50 for chlorophyllase inhibition activity (chlorophyllase) | solubility in water [3] | also measured |
| --- | --- | --- | --- | --- | --- | --- |
| C=CC1=C(C)c2cc3[n-]c(cc4[n-]c(cc5nc(cc1n2)C(C)=C5C=C)c(C)c4CCC(=O)O)c(CCC(=O)O)c3C.[Cl-].[Fe+3] [Chlorhematin, chlorhematin, reference compound] | 27.73% | 21.64% | 20.21% | – | – | Relative content ([1]; in the dark, 25° C., 0 h): 100.00%; Relative content ([1]; in the dark, 25° C., 1 h): 99.55%; Relative content ([1]; in the dark, 25° C., 2 h): 99.24%; Relative content ([1]; in the dark, 25° C., 3 h): 98.65%; Relative content ([1]; under light 30,000 lux, 0 h): 100.00%; Relative content ([1]; under light 30,000 lux, 1 h, salts in water, acidic reference in 30% to 50% ethanol, listed as chlorhematin): less than 30%; Adventitious root number (mung bean seedlings; 0.01 ppm): 11.07 root/seedling; Total adventitious root length (mung bean seedlings; 0.01 ppm): 18.03 cm/seedling; Adventitious root number (mung bean seedlings; 0.1 ppm): 10.33 root/seedling; Total adventitious root length (mung bean seedlings; 0.1 ppm): 18.28 cm/seedling; Average fruit number (pepper; [7]): 49.2 fruits/plant; Single-fruit weight (pepper; [7]): 18.6 g/fruit; Yield per mu (pepper; [7]): 2833.3 kg/mu; Yield increase rate (pepper; 1.5 mg/mu sprayed twice, versus clear water): 5.33% |
| iron chlorin [reference compound] | 31.04% | 28.12% | 23.73% | – | – | Relative content ([1]; in the dark, 25° C., 0 h): 100.0%; Relative content ([1]; in the dark, 25° C., 1 h): 99.25%; Relative content ([1]; in the dark, 25° C., 2 h): 99.26%; Relative content ([1]; in the dark, 25° C., 3 h): 99.20%; Relative content ([1]; under light 30,000 lux, 0 h): 100.00%; Disease index (mosaic virus): 8.90; Relative control effect (mosaic virus): 65.57%; Actual yield per mu (wheat; [8]): 586.9 kg; Ear number per mu (wheat; [8]): 31.5 10,000; Grain number per ear (wheat; [8]): 34.6 grains/ear; Thousand-grain weight (wheat; [8]): 53.9 g; Yield increase rate per mu (wheat; 3 mg/mu sprayed 3 times, versus clear water): 4.99% |
| copper iron chlorophyllin [Example 34] | 72.13% | 68.58% | 65.03% | 5.04 ppm | slightly soluble | – |
| potassium chlorin [Example 52] | 60.05% | 46.81% | 42.89% | 5.98 ppm | easily soluble | – |
| sodium chlorin [Example 53] | 41.71% | 30.78% | 26.96% | 6.03 ppm | easily soluble | – |
| C=CC1=C(C)c2cc3[nH]c(cc4nc(cc5[nH]c(cc1n2)c(C)c5CCC(=O)O)C(CCC(=O)O)=C4C)c(C)c3C=C [Protoporphyrin disodium, protoporphyrin disodium, reference compound] | 63.47% | 62.74% | 57.05% | – | – | pH ([2]; 0.1 ppm in purified water): (6.61); pH ([2]; 1.0 ppm in purified water): (6.67); pH ([2]; 10.0 ppm in purified water): (7.21); pH ([2]; 20.0 ppm in purified water): (7.37); pH ([2]; 30.0 ppm in purified water): (7.50); pH ([2]; 100.0 ppm in purified water): (8.05); pH ([2]; 1000.0 ppm in purified water): (9.25); pH ([2]; 10000.0 ppm in purified water): (10.60); Adventitious root number (mung bean seedlings; 0.01 ppm): 9.61 root/seedling; Total adventitious root length (mung bean seedlings; 0.01 ppm): 20.74 cm/seedling; Adventitious root number (mung bean seedlings; 0.1 ppm): 9.77 root/seedling; Total adventitious root length (mung bean seedlings; 0.1 ppm): 21.30 cm/seedling |
| zinc chlorin [Example 60] | 55.66% | 50.60% | 45.30% | 6.37 ppm | slightly soluble | – |
| zinc iron chlorin [Example 28] | 71.19% | 65.23% | 61.37% | 5.66 ppm | slightly soluble | – |
| copper chlorin [Example 61] | 85.27% | 82.15% | 80.17% | 6.18 ppm | slightly soluble | – |
| potassium copper chlorophyllin [Example 43] | 83.53% | 77.11% | 78.11% | 12.89 ppm | easily soluble | – |
